Experimental data: ChEMBL document CHEMBL5104090, “Recent advances in the medicinal chemistry of carbonic anhydrase inhibitors” (Eur J Med Chem, 2021)
Blank lines part the entries; values can stand above or below the molecule they belong to.

Tests used:
Carbonic anhydrase 9 [1] = target: T1, Carbonic anhydrase 9 (Homo sapiens, UniProt Q16790)
Carbonic anhydrase 4 = Carbonic anhydrase 4 (Homo sapiens, UniProt P22748)
Carbonic anhydrase 2 = Carbonic anhydrase 2 (Homo sapiens, UniProt P00918)
Carbonic anhydrase 1 [2] = target: T2, Carbonic anhydrase 1 (Homo sapiens, UniProt P00915)
Carbonic anhydrase 1 [3] = target: T2, Carbonic anhydrase 1; remark: listed apart in the source
Ca9-22 = experiment: cells; assay type: functional; conditions: Homo sapiens, time 48 hrs
Description: Cytotoxicity against human Ca9-22 cells assessed as cell growth inhibition measured after 48 hrs by MTT assay

Carbonic anhydrase 12 = Carbonic anhydrase 12 (Homo sapiens, UniProt O43570)
Carbonic anhydrase 9 [4] = target: T1, Carbonic anhydrase 9; remark: listed apart in the source

Carbonic anhydrase 12, sequence (O43570 whole entry): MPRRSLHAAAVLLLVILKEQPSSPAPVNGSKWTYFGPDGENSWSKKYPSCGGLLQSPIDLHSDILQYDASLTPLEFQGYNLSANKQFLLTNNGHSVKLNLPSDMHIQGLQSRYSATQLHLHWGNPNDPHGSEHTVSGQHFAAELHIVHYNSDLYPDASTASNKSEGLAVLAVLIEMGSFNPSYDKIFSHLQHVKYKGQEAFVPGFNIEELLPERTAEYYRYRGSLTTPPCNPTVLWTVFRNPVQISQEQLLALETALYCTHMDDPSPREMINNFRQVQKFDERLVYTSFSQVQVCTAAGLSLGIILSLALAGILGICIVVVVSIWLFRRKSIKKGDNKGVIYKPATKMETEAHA
T2 sequence (P00915 whole entry): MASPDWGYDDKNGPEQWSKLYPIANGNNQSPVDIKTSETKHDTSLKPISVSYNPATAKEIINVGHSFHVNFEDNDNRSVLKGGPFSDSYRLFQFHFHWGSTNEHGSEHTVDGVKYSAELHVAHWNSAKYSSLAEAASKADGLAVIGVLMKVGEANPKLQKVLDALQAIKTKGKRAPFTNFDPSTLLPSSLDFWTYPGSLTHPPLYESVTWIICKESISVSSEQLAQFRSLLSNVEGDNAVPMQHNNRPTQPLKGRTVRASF
Carbonic anhydrase 4, sequence (P22748 whole entry): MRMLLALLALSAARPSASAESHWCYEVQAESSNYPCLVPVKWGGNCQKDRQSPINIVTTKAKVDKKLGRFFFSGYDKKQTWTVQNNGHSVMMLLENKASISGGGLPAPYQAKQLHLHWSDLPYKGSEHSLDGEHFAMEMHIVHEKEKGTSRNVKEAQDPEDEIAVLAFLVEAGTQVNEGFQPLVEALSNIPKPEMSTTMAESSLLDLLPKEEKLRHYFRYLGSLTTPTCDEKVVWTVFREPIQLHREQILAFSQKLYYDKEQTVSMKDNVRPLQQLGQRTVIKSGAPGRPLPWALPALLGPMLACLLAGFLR

Ki (Carbonic anhydrase 9 [1]): 0.0236 µM
SMILES: CCN1C(=O)/C(=N\Nc2ccc(S(N)(=O)=O)cc2)c2ccccc21

Ki (Carbonic anhydrase 4): 0.0065 µM
SMILES: COc1ccc(C(=O)/C=C/Nc2cccc(S(N)(=O)=O)c2)cc1

Ki (Carbonic anhydrase 9 [1]): 0.0173 µM
SMILES: C/C(=N\NC(=O)c1ccc(S(N)(=O)=O)cc1)c1ccc(N2C(=O)c3ccc(C)cc3C2=O)cc1

Ki (Carbonic anhydrase 2): > 100 µM
Ki (Carbonic anhydrase 1 [2]): > 100 µM
SMILES: O=S1(=O)CC=Cc2cccc(-c3ccccc3)c2O1

Ki (Carbonic anhydrase 9 [1]): 0.0012 µM
SMILES: NS(=O)(=O)c1cccc(-c2nc(-c3cccnc3)no2)c1

Ki (Carbonic anhydrase 2): > 100 µM
Ki (Carbonic anhydrase 1 [2]): > 100 µM
SMILES: O=S1(=O)CC=Cc2cc(-c3ccc(C(F)(F)F)cc3)ccc2O1

Ki (Carbonic anhydrase 9 [1]): 0.169 µM
SMILES: C/C(=N\O)c1ccc(N2C(=O)C3CC=CCC3C2=O)cc1 (stereo unspecified)

Ki (Carbonic anhydrase 9 [1]): 0.169 µM
SMILES: C/C(=N\O)c1ccc(N2C(=O)c3ccc(C(C)(C)C)cc3C2=O)cc1

Ki (Carbonic anhydrase 9 [1]): > 0.044 µM
Ki (Carbonic anhydrase 1 [3]): > 0.23 µM
Ki (Carbonic anhydrase 12): > 0.009 µM
SMILES: COc1cc(C2CC(c3ccc(C(F)(F)F)cc3)=NN2c2ccc(S(N)(=O)=O)cc2)cc(OC)c1OC (stereo unspecified)
CC50 (Ca9-22): 6.3 µM

Ki (Carbonic anhydrase 9 [1]): 0.0018 µM
SMILES: CC(C)(C)OC(=O)C[C@H](Cc1ccccc1)C(=O)CCC(=O)NCc1ccc(S(N)(=O)=O)cc1

Ki (Carbonic anhydrase 9 [1]): 0.0139 µM
Ki (Carbonic anhydrase 12): 0.0343 µM
SMILES: CCN1C(=O)/C(=N\c2ccc(S(N)(=O)=O)cc2)c2ccccc21

Ki (Carbonic anhydrase 2): > 100 µM
Ki (Carbonic anhydrase 1 [2]): > 100 µM
SMILES: O=S1(=O)CC=Cc2cccc(-c3ccc(F)cc3)c2O1

Ki (Carbonic anhydrase 12): 0.0052 µM
SMILES: NS(=O)(=O)c1ccc(CCNC(=O)CSc2nc3ccc(I)cc3c(=O)n2Cc2ccccc2)cc1

Ki (Carbonic anhydrase 9 [1]): > 0.044 µM
Ki (Carbonic anhydrase 1 [3]): > 0.23 µM
Ki (Carbonic anhydrase 12): > 0.009 µM
SMILES: COc1ccc(C2CC(c3ccc(Cl)cc3)=NN2c2ccc(S(N)(=O)=O)cc2)c(OC)c1OC (stereo unspecified)
CC50 (Ca9-22): 6.3 µM

Ki (Carbonic anhydrase 2): > 100 µM
Ki (Carbonic anhydrase 1 [2]): > 100 µM
SMILES: COc1ccc(-c2cccc3c2OS(=O)(=O)CC=C3)cc1

Ki (Carbonic anhydrase 2): > 100 µM
Ki (Carbonic anhydrase 1 [2]): > 100 µM
SMILES: O=S1(=O)CC=Cc2cccc(Br)c2O1

Ki (Carbonic anhydrase 9 [1]): 0.0838 µM
SMILES: C/C(=N\NC(=O)c1ccc(S(N)(=O)=O)cc1)c1ccc(N2C(=O)c3ccc(C(C)(C)C)cc3C2=O)cc1

Ki (Carbonic anhydrase 9 [4]): 0.0193 µM
SMILES: NS(=O)(=O)c1ccc(CCn2c(SCc3ccc(F)cc3)nc3ccccc3c2=O)cc1

Ki (Carbonic anhydrase 9 [1]): 0.169 µM
SMILES: C/C(=N\O)c1ccc(N2C(=O)C3C(C2=O)C2(Cl)C(Cl)=C(Cl)C3(Cl)C2(Cl)Cl)cc1 (stereo unspecified)

Ki (Carbonic anhydrase 2): > 100 µM
Ki (Carbonic anhydrase 1 [2]): > 100 µM
SMILES: O=S1(=O)CC=Cc2cc(-c3ccccc3)ccc2O1

Ki (Carbonic anhydrase 9 [1]): 0.0139 µM
Ki (Carbonic anhydrase 12): 0.0343 µM
SMILES: NS(=O)(=O)c1ccc(/N=C2\C(=O)N(Cc3ccccc3)c3ccccc32)cc1

Ki (Carbonic anhydrase 9 [1]): > 0.044 µM
Ki (Carbonic anhydrase 1 [3]): > 0.23 µM
Ki (Carbonic anhydrase 12): > 0.009 µM
SMILES: COc1cc(OC)c(C2CC(c3cccs3)=NN2c2ccc(S(N)(=O)=O)cc2)cc1OC (stereo unspecified)
CC50 (Ca9-22): 6.3 µM

Ki (Carbonic anhydrase 9 [1]): 0.0653 µM
SMILES: NS(=O)(=O)c1ccc(NCC(=O)N/N=C2\C(=O)N(C(=O)c3ccccc3)c3ccccc32)cc1

Ki (Carbonic anhydrase 9 [1]): 0.0173 µM
SMILES: C/C(=N\NC(=O)c1ccc(S(N)(=O)=O)cc1)c1ccc(N2C(=O)c3c(Br)c(Br)c(Br)c(Br)c3C2=O)cc1

Ki (Carbonic anhydrase 2): > 100 µM
Ki (Carbonic anhydrase 1 [2]): > 100 µM
SMILES: CCOC(=O)c1ccc(-c2cccc3c2OS(=O)(=O)CC=C3)cc1

Ki (Carbonic anhydrase 9 [4]): 0.00021 µM
SMILES: Cc1ccc(C(=O)/C=C/Nc2ccc(S(N)(=O)=O)cc2)cc1

Ki (Carbonic anhydrase 9 [1]): > 0.044 µM
Ki (Carbonic anhydrase 1 [3]): > 0.23 µM
Ki (Carbonic anhydrase 12): > 0.009 µM
SMILES: COc1cc(OC)c(C2CC(c3ccc(Br)cc3)=NN2c2ccc(S(N)(=O)=O)cc2)cc1OC (stereo unspecified)
CC50 (Ca9-22): 6.3 µM

Ki (Carbonic anhydrase 12): 0.0343 µM
SMILES: C=CCN1C(=O)/C(=N\Nc2ccc(S(N)(=O)=O)cc2)c2ccccc21

Ki (Carbonic anhydrase 9 [1]): 0.169 µM
SMILES: C/C(=N\O)c1ccc(N2C(=O)c3cc(Cl)c(Cl)cc3C2=O)cc1

Ki (Carbonic anhydrase 9 [1]): 0.0016 µM
SMILES: COc1ccc2nc(S/C(=N/Nc3ccc(S(N)(=O)=O)cc3)C(C)=O)n(-c3ccccc3)c(=O)c2c1

Ki (Carbonic anhydrase 2): > 100 µM
Ki (Carbonic anhydrase 1 [2]): > 100 µM
SMILES: COc1ccc(-c2ccc3c(c2)C=CCS(=O)(=O)O3)cc1

Ki (Carbonic anhydrase 9 [1]): 0.0148 µM
SMILES: Cc1ccc(-c2cc(C(F)(F)F)nn2-c2ccc(S(N)(=O)=O)cc2)cc1 [CELECOXIB]

Ki (Carbonic anhydrase 9 [1]): 0.0173 µM
SMILES: C/C(=N\NC(=O)c1ccc(S(N)(=O)=O)cc1)c1ccc(N2C(=O)C3C(C2=O)C2(Cl)C(Cl)=C(Cl)C3(Cl)C2(Cl)Cl)cc1 (stereo unspecified)

Ki (Carbonic anhydrase 2): > 100 µM
Ki (Carbonic anhydrase 1 [2]): > 100 µM
SMILES: O=S1(=O)CC=Cc2cc(I)ccc2O1

Ki (Carbonic anhydrase 9 [1]): > 0.044 µM
Ki (Carbonic anhydrase 1 [3]): > 0.23 µM
Ki (Carbonic anhydrase 12): > 0.009 µM
SMILES: COc1cc(C2CC(c3ccc(Cl)cc3)=NN2c2ccc(S(N)(=O)=O)cc2)cc(OC)c1OC (stereo unspecified)
CC50 (Ca9-22): 6.3 µM

Ki (Carbonic anhydrase 9 [1]): 0.0139 µM
Ki (Carbonic anhydrase 12): 0.0343 µM
SMILES: CN1C(=O)/C(=N\c2ccc(S(N)(=O)=O)cc2)c2ccccc21

Ki (Carbonic anhydrase 2): > 100 µM
Ki (Carbonic anhydrase 1 [2]): > 100 µM
SMILES: O=S1(=O)CC=Cc2ccc(-c3ccc(F)cc3)cc2O1

Ki (Carbonic anhydrase 9 [1]): 0.169 µM
SMILES: C/C(=N\O)c1ccc(N2C(=O)c3ccccc3C2=O)cc1

Ki (Carbonic anhydrase 9 [1]): > 0.044 µM
Ki (Carbonic anhydrase 1 [3]): > 0.23 µM
Ki (Carbonic anhydrase 12): > 0.009 µM
SMILES: COc1cc(OC)c(C2CC(c3ccc(F)cc3)=NN2c2ccc(S(N)(=O)=O)cc2)cc1OC (stereo unspecified)
CC50 (Ca9-22): 6.3 µM

Ki (Carbonic anhydrase 9 [1]): 0.0069 µM
SMILES: O=S1(=O)C=Cc2cc(-n3nncc3-c3ccc(F)cc3)ccc2O1
